The assay concerns Plasmodium berghei. The assay is described as follows: Luciferase/luciferin-expressing antifolate-resistant parasites were used to infect a culture of HepG2 cells that were pre-incubated with compounds. Infected hepatocytes emit light due to the luciferase reaction. Assay results are presented as the percent inhibition of light emission compared to control. […]. Format: functional. Particulars: sporozoite; for IC90: read-out: LUCIFERASE INFECTION ASSAY - IC90.

Bounds are passed on as bounds.

Broadly, the IC50 is the point on the concentration scale where inhibition reaches its midpoint. By IC90 is commonly meant the concentration at which the effect reaches the 90% level.

With `CC(C)c1ccccc1-n1c(SCC(=O)N2CCc3ccccc3C2)nc2ccccc2c1=O`, the IC90 is greater than 10 µM. For the same compound, the IC50 (FFLUC_HILL_SLOPE 14.4, FFLUC_R_SQUARED 0.575, read-out: LUCIFERASE INFECTION ASSAY - IC50) is greater than 10 µM.
As for `COc1ccc(Sc2ccc([N+](=O)[O-])c3nonc23)cc1`, the IC90 is 10.7 µM. Under “FFLUC_HILL_SLOPE 14.3, FFLUC_R_SQUARED 0.436, HEPG2TOX_HILL_SLOPE 9.62, HEPG2TOX_R_SQUARED 0.82, PBLUC_HILL_SLOPE 22.9, PBLUC_R_SQUARED 0.553, read-out: LUCIFERASE INFECTION ASSAY - IC50”, the IC50 was determined as 9.76 µM.
For `Cc1ccc(C(=O)OCC(=O)c2cc(C)n(-c3cccc(C(F)(F)F)c3)c2C)cc1NC(=O)c1ccco1`, the IC90 was greater than 10 µM. Also, the IC50 (FFLUC_HILL_SLOPE 14.7, FFLUC_R_SQUARED 0.458, read-out: LUCIFERASE INFECTION ASSAY - IC50) is greater than 10 µM.
Regarding `CSc1nccc(-c2ccsc2)n1`, the IC90 is greater than 15.8 µM. The IC50 (FFLUC_HILL_SLOPE 14.6, FFLUC_R_SQUARED 0.758, read-out: LUCIFERASE INFECTION ASSAY - IC50) was greater than 15.8 µM.
Turning to `c1cnc(N2CCN(CCCNc3ncnc4sccc34)CC2)nc1`, the IC90 was greater than 10 µM. The IC50 (FFLUC_HILL_SLOPE 14.8, FFLUC_R_SQUARED 0.258, HEPG2TOX_HILL_SLOPE 2.5, HEPG2TOX_R_SQUARED 0.964, PBLUC_HILL_SLOPE 9.27, PBLUC_R_SQUARED 0.473, read-out: LUCIFERASE INFECTION ASSAY - IC50) was 8.5 µM.
For the compound `COc1ccc(Nc2n[nH]c(NC(=O)Cc3c(Cl)cccc3Cl)c2C#N)cc1`, the IC90 worked out at 0.506 µM. Moreover, the IC50 (FFLUC_HILL_SLOPE 14.5, FFLUC_R_SQUARED 0.631, HEPG2TOX_HILL_SLOPE 1.37, HEPG2TOX_R_SQUARED 0.939, PBLUC_HILL_SLOPE 1.1, PBLUC_R_SQUARED 0.834, read-out: LUCIFERASE INFECTION ASSAY - IC50) worked out at 0.069 µM.
With `Cc1cc(C(=O)CN2C(=O)NC(C)(C3CC3)C2=O)c(C)n1C(c1ccccc1)c1ccccc1` (stereo unspecified), the IC90 came out at 6.7 µM. Under “FFLUC_HILL_SLOPE 14.7, FFLUC_R_SQUARED 0.253, PBLUC_HILL_SLOPE 1.67, PBLUC_R_SQUARED 0.756, read-out: LUCIFERASE INFECTION ASSAY - IC50”, the IC50 was determined as 1.8 µM.
As for `CC1(C(=O)NCCC(F)(F)F)Cc2c(-c3ccc4c(c3)OCO4)ccnc2O1` (stereo unspecified), the IC90 was 6.15 µM. Moreover, for the setting “FFLUC_HILL_SLOPE 14.8, FFLUC_R_SQUARED 0.74, HEPG2TOX_HILL_SLOPE 2.73, HEPG2TOX_R_SQUARED 0.858, PBLUC_HILL_SLOPE 3.16, PBLUC_R_SQUARED 0.521, read-out: LUCIFERASE INFECTION ASSAY - IC50”, the IC50 was found to be 3.07 µM.
For `CC(C)(C)c1cc(NC(=O)COc2ccc3[nH]c4ccccc4c(=O)c3c2)n(-c2ccccc2)n1`, the IC90 turned out to be 0.752 µM. Moreover, where the note is “FFLUC_HILL_SLOPE 14.6, FFLUC_R_SQUARED 0.0178, PBLUC_HILL_SLOPE 1.61, PBLUC_R_SQUARED 0.936, read-out: LUCIFERASE INFECTION ASSAY - IC50”, the IC50 turned out to be 0.192 µM.
With `Cc1onc(-c2c(Cl)cccc2Cl)c1-c1nc(-c2cc(-c3ccccc3)c(C(F)(F)F)s2)cs1`, the concentration for an effect of 90% (IC90) was greater than 6.14 µM. Further, the IC50 (FFLUC_HILL_SLOPE 14.8, FFLUC_R_SQUARED 0.219, HEPG2TOX_HILL_SLOPE 0.104, HEPG2TOX_R_SQUARED 0.184, PBLUC_HILL_SLOPE 1.63, PBLUC_R_SQUARED 0.31, read-out: LUCIFERASE INFECTION ASSAY - IC50) was greater than 6.14 µM.
Consider `O=C(NC1CCCc2ccccc21)c1cc(-c2cccs2)nn1-c1ccccc1` (stereo unspecified), for which the IC90 was greater than 10 µM. In addition, the IC50 (FFLUC_HILL_SLOPE 14.9, FFLUC_R_SQUARED 0.608, PBLUC_HILL_SLOPE 2.01, PBLUC_R_SQUARED 0.0278, read-out: LUCIFERASE INFECTION ASSAY - IC50) was 6.82 µM.
As for `CC1=C(C(=O)OC2CCC(C)CC2)C(c2ccc(C)cc2)NC(=O)N1` (stereo unspecified), the IC90 was greater than 9.64 µM. Further, under “FFLUC_HILL_SLOPE 14.5, FFLUC_R_SQUARED 0.355, read-out: LUCIFERASE INFECTION ASSAY - IC50”, the IC50 was greater than 9.64 µM.
As to `COc1cccc(-c2nc3ccc(NC(=O)Nc4ccc(Cl)c(C(F)(F)F)c4)cn3n2)c1`, the IC90 worked out at 9.24 µM. Further, where the note is “FFLUC_HILL_SLOPE 14.4, FFLUC_R_SQUARED 0.104, PBLUC_HILL_SLOPE 6.95, PBLUC_R_SQUARED 0.291, read-out: LUCIFERASE INFECTION ASSAY - IC50”, the IC50 amounted to 6.74 µM.
Turning to `Cc1onc(-c2ccc(Cl)cc2)c1-c1ccnc(SCC(=O)c2ccc([N+](=O)[O-])cc2)n1`, the IC90 was greater than 7.07 µM. Moreover, for the setting “FFLUC_HILL_SLOPE 14.7, FFLUC_R_SQUARED 0.642, read-out: LUCIFERASE INFECTION ASSAY - IC50”, the IC50 is greater than 7.07 µM.
Regarding `COc1ccc(Cl)cc1N1C(=O)/C(=C\c2sccc2C)N=C1SCc1cc(=O)n2ccsc2n1`, the IC90 is greater than 10 µM. Besides, where the note is “FFLUC_HILL_SLOPE 14.8, FFLUC_R_SQUARED 0.288, PBLUC_HILL_SLOPE 0.636, PBLUC_R_SQUARED 0.525, read-out: LUCIFERASE INFECTION ASSAY - IC50”, the IC50 stood at 2.55 µM.
With `COc1c(Cl)cc(Br)c(OC)c1C(=O)NC(=O)Nc1cc(C(F)(F)F)cc(C(F)(F)F)c1`, the IC90 was 2.27 µM. Further, the IC50 (FFLUC_HILL_SLOPE 14.8, FFLUC_R_SQUARED 0.569, HEPG2TOX_HILL_SLOPE 7.93, HEPG2TOX_R_SQUARED 0.303, PBLUC_HILL_SLOPE 13, PBLUC_R_SQUARED 0.4, read-out: LUCIFERASE INFECTION ASSAY - IC50) was determined as 1.92 µM.
With `CC(C(OC(=O)c1ccc(S(=O)(=O)N(C)C)cc1)c1ccccc1)N(C)S(=O)(=O)c1ccc(Cl)cc1` (stereo unspecified), the IC90 is greater than 10 µM. The IC50 (FFLUC_HILL_SLOPE 14.7, FFLUC_R_SQUARED 0.389, PBLUC_HILL_SLOPE 2.36, PBLUC_R_SQUARED 0.776, read-out: LUCIFERASE INFECTION ASSAY - IC50) was 7.17 µM.
On to `COc1ccc(-c2cc(NC(=O)Cc3ccc(S(=O)(=O)N4CCCC4)s3)ccc2OC)cc1`, for which the IC90 amounted to 4.64 µM. Besides, the IC50 (FFLUC_HILL_SLOPE 14.7, FFLUC_R_SQUARED 0.565, HEPG2TOX_HILL_SLOPE 10.6, HEPG2TOX_R_SQUARED 0.932, PBLUC_HILL_SLOPE 12.2, PBLUC_R_SQUARED 0.78, read-out: LUCIFERASE INFECTION ASSAY - IC50) was found to be 3.88 µM.
As to `O=C(NC(=S)NNc1ncc(C(F)(F)F)cc1Cl)c1cccs1`, the IC90 was determined as 1.1 µM. Besides, the IC50 (FFLUC_HILL_SLOPE 14.4, FFLUC_R_SQUARED 0.344, HEPG2TOX_HILL_SLOPE 0.95, HEPG2TOX_R_SQUARED 0.974, PBLUC_HILL_SLOPE 2.04, PBLUC_R_SQUARED 0.707, read-out: LUCIFERASE INFECTION ASSAY - IC50) is 0.374 µM.
As for `CCCCNC(=O)c1c(NC(=O)c2ccc(Cl)cc2)nc2ccccn12`, the IC90 turned out to be 3 µM. Moreover, under “FFLUC_HILL_SLOPE 14.7, FFLUC_R_SQUARED 0.115, HEPG2TOX_HILL_SLOPE 1.94, HEPG2TOX_R_SQUARED 0.747, PBLUC_HILL_SLOPE 14.3, PBLUC_R_SQUARED 0.4, read-out: LUCIFERASE INFECTION ASSAY - IC50”, the IC50 was found to be 2.58 µM.
As for `Cc1ccc(-n2ncc(Cl)c(Cl)c2=O)cc1`, the IC90 is greater than 12.9 µM. For the same compound, where the note is “FFLUC_HILL_SLOPE 14.5, FFLUC_R_SQUARED 0.489, HEPG2TOX_HILL_SLOPE 2.71, HEPG2TOX_R_SQUARED 0.789, PBLUC_HILL_SLOPE 3.3, PBLUC_R_SQUARED 0.431, read-out: LUCIFERASE INFECTION ASSAY - IC50”, the IC50 is 8.02 µM.
In the case of `O=C(CSc1nnnn1-c1ccccc1)N1N=C2/C(=C/c3ccc(F)cc3)CCCC2C1c1ccc(F)cc1` (stereo unspecified), the IC90 was greater than 10 µM. The IC50 (FFLUC_HILL_SLOPE 14.4, FFLUC_R_SQUARED 0.768, PBLUC_HILL_SLOPE 7.48, PBLUC_R_SQUARED 0.336, read-out: LUCIFERASE INFECTION ASSAY - IC50) worked out at 8.21 µM.
As to `CC(=O)c1ccc(NC(=O)Cn2nc(-c3ccco3)ccc2=O)cc1`, the IC90 was greater than 9.78 µM. Also, the IC50 (FFLUC_HILL_SLOPE 14.3, FFLUC_R_SQUARED 0.29, read-out: LUCIFERASE INFECTION ASSAY - IC50) was greater than 9.78 µM.
On to `O=C1C=CC(=O)N1c1ccc(-c2csnn2)cc1`, for which the 90% effect concentration (IC90) is greater than 12.8 µM. Also, the IC50 (FFLUC_HILL_SLOPE 14.6, FFLUC_R_SQUARED 0.441, read-out: LUCIFERASE INFECTION ASSAY - IC50) was greater than 12.8 µM.
As to `Clc1ccc2nc(CSc3nnc4c(n3)[nH]c3ccccc34)cn2c1`, the IC90 was determined as 9.67 µM. For the same compound, the IC50 (FFLUC_HILL_SLOPE 14.4, FFLUC_R_SQUARED 0.465, PBLUC_HILL_SLOPE 2.72, PBLUC_R_SQUARED 0.431, read-out: LUCIFERASE INFECTION ASSAY - IC50) was found to be 4.31 µM.
On to `c1ccc(-c2ccc(C3=Nc4ccccc4SC(c4ccco4)C3)cc2)cc1` (stereo unspecified), for which the IC90 worked out at 4.75 µM. For the same compound, where the note is “FFLUC_HILL_SLOPE 14.5, FFLUC_R_SQUARED 0.557, PBLUC_HILL_SLOPE 1.32, PBLUC_R_SQUARED 0.568, read-out: LUCIFERASE INFECTION ASSAY - IC50”, the IC50 is 0.903 µM.
As for `Cc1ccc(CNCc2nc(NCc3ccc(C)cc3)c3c(C)c(C)sc3n2)cc1`, the IC90 is 4.22 µM. Further, the IC50 (FFLUC_HILL_SLOPE 14.5, FFLUC_R_SQUARED 0.473, HEPG2TOX_HILL_SLOPE 357, HEPG2TOX_R_SQUARED 0.506, PBLUC_HILL_SLOPE 12.5, PBLUC_R_SQUARED 0.0149, read-out: LUCIFERASE INFECTION ASSAY - IC50) came out at 3.54 µM.
Take `COc1ccc(-n2cnnc2SCC(=O)NC(=O)NC2CCCC2)cc1`: the IC90 was greater than 10 µM. Moreover, the IC50 (FFLUC_HILL_SLOPE 14.6, FFLUC_R_SQUARED 0.0899, read-out: LUCIFERASE INFECTION ASSAY - IC50) was greater than 10 µM.
